Assay results: patent US20120184556A1, “SUBSTITUTED ENZOIMIDAZOLESULFONAMIDES AND SUBSTITUTED INDOLESULFONAMIDES AS MGLUR4 POTENTIATORS” (priority 2009, published 2012)
pEC50: −log10 of the molar value.

target: T1, human mGluR4 (Homo sapiens, UniProt Q14833); assay: human mGluR4 potentiation assay, CHO cells, Fluo-4 calcium fluorescence, agonist EC20; assay type: cell-based; conditions: CHO; maximum extent of potentiation, human mGluR4; read-out: GluMax
T1 construct: expressed in transfected cells; host or cells: Chinese Hamster Ovary (CHO) cells
T1 sequence (Q14833 33-912): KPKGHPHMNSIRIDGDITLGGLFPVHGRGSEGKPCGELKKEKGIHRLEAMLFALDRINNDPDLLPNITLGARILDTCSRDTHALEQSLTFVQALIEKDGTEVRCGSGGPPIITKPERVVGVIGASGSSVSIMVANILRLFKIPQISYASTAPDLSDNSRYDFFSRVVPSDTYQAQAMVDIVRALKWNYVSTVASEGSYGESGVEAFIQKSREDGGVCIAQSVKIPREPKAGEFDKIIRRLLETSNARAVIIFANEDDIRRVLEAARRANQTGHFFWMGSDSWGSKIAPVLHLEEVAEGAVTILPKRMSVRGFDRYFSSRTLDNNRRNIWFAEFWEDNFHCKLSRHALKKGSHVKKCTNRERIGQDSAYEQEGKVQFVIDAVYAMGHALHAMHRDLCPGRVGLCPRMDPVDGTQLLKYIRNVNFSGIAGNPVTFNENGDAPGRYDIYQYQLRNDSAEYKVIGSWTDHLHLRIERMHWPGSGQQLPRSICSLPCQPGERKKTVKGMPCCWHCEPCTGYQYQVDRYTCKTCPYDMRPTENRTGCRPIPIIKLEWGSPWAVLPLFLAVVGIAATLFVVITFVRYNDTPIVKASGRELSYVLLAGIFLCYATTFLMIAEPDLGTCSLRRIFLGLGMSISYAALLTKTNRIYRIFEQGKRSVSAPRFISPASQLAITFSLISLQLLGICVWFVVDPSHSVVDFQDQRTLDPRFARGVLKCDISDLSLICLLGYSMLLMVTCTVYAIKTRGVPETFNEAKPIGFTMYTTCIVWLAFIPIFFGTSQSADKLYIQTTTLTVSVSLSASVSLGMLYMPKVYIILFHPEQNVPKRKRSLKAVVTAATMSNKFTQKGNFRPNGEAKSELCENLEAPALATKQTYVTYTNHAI
Method: The disclosed compounds and compositions can be evaluated for their ability to act as a potentiator of metabotropic glutamate receptor activity, in particular mGluR4 activity, by any suitable known methodology known in the art. For example, Chinese Hamster Ovary (CHO) cells transfected with human mGluR4 or HEK cells co-transfected with rat mGluR4 and the G-protein regulated Inwardly Rectifying Potassium channel (GIRK) were plated in clear bottom assay plates for assay in a Hamamatsu FDSS Fluorometric Plate Reader. The cells were loaded with either the Ca2+-sensitive fluorescent dye Fluo-4 or the thallium responsive dye BTC, AM and the plates were washed and placed into a suitable kinetic plate reader. For human mGluR4 assays, a fluorescence baseline was established for 3-5 seconds, the disclosed compounds were then added to the cells, and the response in cells was measured. Approximately two and a half minutes later, a concentration of mGluR4 agonist (e.g. glutamate or L-AP4) eliciting approximately 20% (EC20) of the maximal agonist response was added to the cells, and the response was measured. Two minutes later, a concentration of mGluR4 agonist (e.g. glutamate or L-AP4) eliciting 80% (EC80) of the maximal agonist response was added to the cells, and the response was measured. For rat mGluR4/GIRK experiments, a baseline was established for approximately five seconds, disclosed compounds were added, and either an EC20 or EC80 concentration of agonist was added approximately two and one half minutes later. Potentiation of the agonist response of mGluR4 by the disclosed compounds was observed as an increase in response to the EC20 concentration of agonist in the presence of compound compared to the response to agonist in the absence of compound. Similarly, antagonism of the agonist response of mGluR4 by the disclosed compounds was observed as a decrease in response to the EC80 concentration of agonist in the presence of compound compared to the response to agonist in the absence of compound.
The above described assay operated in two modes. In the first mode, a range of concentrations of the disclosed compounds are added to cells, followed by a single fixed concentration of agonist. If the compound acts as a potentiatior, an EC50 value for potentiation and a maximum extent of potentiation by the compound at this concentration of agonist is determined by non-linear curve fitting. If the compound acts as a noncompetitive antagonist, an IC50 value is determined by non-linear curve fitting. In the second mode, several fixed concentrations of the disclosed compounds are added to various wells on a plate, followed by a range in concentrations of agonist for each concentration of disclosed compound. The EC50 values for the agonist at each concentration of compound are determined by non-linear curve fitting. A decrease in the EC50 value of the agonist with increasing concentrations of the sample compound (a leftward shift of the agonist concentration-response curve) is an indication of the degree of mGluR4 potentiation at a given concentration of the sample compound. A decrease in the maximal response of the agonist with increasing concentrations of the sample compounds, with or without a rightward shift in agonist potency, is an indication of the degree of noncompetitive antagonism at mGluR4. The second mode also indicates whether the sample compounds also affect the maximum response to mGluR4 to agonists.

| Compound | Emax [%] |
| --- | --- |
| O=S(=O)(Nc1ccccc1Cl)c1ccc2[nH]c(-c3cc(Br)no3)nc2c1 [Example 34, 2-(3-bromoisoxazol-5-yl)-N-(2-chlorophenyl)-1H-benzo[d]imidazole-5-sulfonamide] | 149 |
| Cc1cc(-c2nc3cc(S(=O)(=O)Nc4ccccc4Cl)ccc3[nH]2)on1 [Example 35, N-(2-chlorophenyl)-2-(3-methylisoxazol-5-yl)-1H-benzo[d]imidazole-5-sulfonamide] | 87 |
| O=S(=O)(Nc1ccccc1F)c1ccc2[nH]c(-c3cnccn3)nc2c1 [Example 37, N-(2-fluorophenyl)-2-(pyrazin-2-yl)-1H-benzo[d]imidazole-5-sulfonamide] | 118 |
| O=S(=O)(Nc1ccccc1F)c1ccc2[nH]c(-c3ccncn3)nc2c1 [Example 39, N-(2-fluorophenyl)-2-(pyrimidin-4-yl)-1H-benzo[d]imidazole-5-sulfonamide] | 156 |
| O=S(=O)(Nc1ccccc1F)c1ccc2[nH]c(-c3nccs3)nc2c1 [Example 40, N-(2-fluorophenyl)-2-(thiazol-2-yl)-1H-benzo[d]imidazole-5-sulfonamide] | 222 |
| Cn1ccnc1-c1nc2cc(S(=O)(=O)Nc3ccccc3Cl)ccc2[nH]1 [Example 41, N-(2-chlorophenyl)-2-(1-methyl-1H-imidazol-2-yl)-1H-benzo[d]imidazole-5-sulfonamide] | 83 |
| O=S(=O)(Nc1ccccc1Cl)c1ccc2[nH]c(-c3ccno3)nc2c1 [Example 43, N-(2-chlorophenyl)-2-(isoxazol-5-yl)-1H-benzo[d]imidazole-5-sulfonamide] | 69 |
| Cc1nc[nH]c1-c1nc2cc(S(=O)(=O)Nc3ccccc3Cl)ccc2[nH]1 [Example 44, N-(2-chlorophenyl)-2-(4-methyl-1H-imidazol-5-yl)-1H-benzo[d]imidazole-5-sulfonamide] | 36 |
| CC1CCN(S(=O)(=O)c2ccc3[nH]c(-c4ccccn4)nc3c2)CC1 [Example 45, 5-((4-methylpiperidin-1-yl)sulfonyl)-2-(pyridin-2-yl)-1H-benzo[d]imidazole] | 104 |
| O=S(=O)(Nc1ccccc1Cl)c1ccc2[nH]c(C3CCCCO3)nc2c1 (centres unmarked) [Example 46, N-(2-chlorophenyl)-2-(tetrahydro-2H-pyran-2-yl)-1H-benzo[d]imidazole-5-sulfonamide] | 112 |
| O=S(=O)(Nc1ccc(F)cc1F)c1ccc2[nH]c(-c3nccs3)nc2c1 [Example 47, N-(2,4-difluorophenyl)-2-(thiazol-2-yl)-1H-benzo[d]imidazole-5-sulfonamide] | 147 |
| CN(c1ccccc1F)S(=O)(=O)c1ccc2[nH]c(-c3ccccn3)nc2c1 [Example 50, N-(2-fluorophenyl)-N-methyl-2-(pyridin-2-yl)-1H-benzo[d]imidazole-5-sulfonamide] | 61 |
| CN1CCCCC1c1nc2cc(S(=O)(=O)Nc3ccccc3Cl)ccc2[nH]1 (centres unmarked) [Example 53, N-(2-chlorophenyl)-2-(1-methylpiperidin-2-yl)-1H-benzo[d]imidazole-5-sulfonamide] | 59 |

Now from value to compound:

| Emax [%] | Compound |
| --- | --- |
| 76 | O=S(=O)(Nc1ccccc1Cl)c1ccc2[nH]c(-c3ccc(Cl)o3)nc2c1 [Example 30, 2-(5-chlorofuran-2-yl)-N-(2-chlorophenyl)-1H-benzo[d]imidazole-5-sulfonamide] |
| 123 | O=S(=O)(Nc1ccccc1Cl)c1ccc2[nH]c(-c3ncc(F)cc3F)nc2c1 [Example 31, N-(2-chlorophenyl)-2-(3,5-difluoropyridin-2-yl)-1H-benzo[d]imidazole-5-sulfonamide] |
| 246 | O=S(=O)(Nc1ccccc1F)c1ccc2[nH]c(-c3ccccn3)nc2c1 [Example 33, N-(2-fluorophenyl)-2-(pyridin-2-yl)-1H-benzo[d]imidazole-5-sulfonamide] |
| 73 | O=S(=O)(Nc1ccc(F)cc1F)c1ccc2[nH]c(-c3ccccc3)nc2c1 [Example 36, N-(2,4-difluorophenyl)-2-phenyl-1H-benzo[d]imidazole-5-sulfonamide] |
| 42 | O=S(=O)(Nc1ccccc1F)c1ccc2[nH]c(-c3ccsc3)nc2c1 [Example 38, N-(2-fluorophenyl)-2-(thiophen-3-yl)-1H-benzo[d]imidazole-5-sulfonamide] |
| 50 | O=S(=O)(Nc1ccc(F)cc1F)c1ccc2[nH]c(-c3ccsc3)nc2c1 [Example 42, N-(2,4-difluorophenyl)-2-(thiophen-3-yl)-1H-benzo[d]imidazole-5-sulfonamide] |
| 85 | CCc1ccc(NS(=O)(=O)c2ccc3[nH]c(-c4ccsc4)nc3c2)cc1 [Example 48, N-(4-ethylphenyl)-2-(thiophen-3-yl)-1H-benzo[d]imidazole-5-sulfonamide] |
| 252 | O=S(=O)(Nc1ccc(F)cc1F)c1ccc2[nH]c(-c3ccccn3)nc2c1 [Example 51, N-(2,4-difluorophenyl)-2-(pyridin-2-yl)-1H-benzo[d]imidazole-5-sulfonamide] |
| 226 | O=S(=O)(Nc1ccc(F)cc1F)c1ccc2[nH]c(-c3cccc(F)n3)nc2c1 [Example 52, N-(2,4-difluorophenyl)-2-(6-fluoropyridin-2-yl)-1H-benzo[d]imidazole-5-sulfonamide] |

same assay, conditions: potentiation of human mGluR4 response to EC20 agonist; read-out: hEC50

| Compound | pEC50 |
| --- | --- |
| O=S(=O)(Nc1ccccc1Cl)c1ccc2[nH]c(-c3cc(Br)no3)nc2c1 [Example 34, 2-(3-bromoisoxazol-5-yl)-N-(2-chlorophenyl)-1H-benzo[d]imidazole-5-sulfonamide] | 5.96 |
| Cc1cc(-c2nc3cc(S(=O)(=O)Nc4ccccc4Cl)ccc3[nH]2)on1 [Example 35, N-(2-chlorophenyl)-2-(3-methylisoxazol-5-yl)-1H-benzo[d]imidazole-5-sulfonamide] | 5.70 |
| O=S(=O)(Nc1ccccc1F)c1ccc2[nH]c(-c3cnccn3)nc2c1 [Example 37, N-(2-fluorophenyl)-2-(pyrazin-2-yl)-1H-benzo[d]imidazole-5-sulfonamide] | 5.26 |
| O=S(=O)(Nc1ccccc1F)c1ccc2[nH]c(-c3ccncn3)nc2c1 [Example 39, N-(2-fluorophenyl)-2-(pyrimidin-4-yl)-1H-benzo[d]imidazole-5-sulfonamide] | 5.32 |
| O=S(=O)(Nc1ccccc1F)c1ccc2[nH]c(-c3nccs3)nc2c1 [Example 40, N-(2-fluorophenyl)-2-(thiazol-2-yl)-1H-benzo[d]imidazole-5-sulfonamide] | 6.12 |
| Cn1ccnc1-c1nc2cc(S(=O)(=O)Nc3ccccc3Cl)ccc2[nH]1 [Example 41, N-(2-chlorophenyl)-2-(1-methyl-1H-imidazol-2-yl)-1H-benzo[d]imidazole-5-sulfonamide] | 5.02 |
| O=S(=O)(Nc1ccccc1Cl)c1ccc2[nH]c(-c3ccno3)nc2c1 [Example 43, N-(2-chlorophenyl)-2-(isoxazol-5-yl)-1H-benzo[d]imidazole-5-sulfonamide] | 5.55 |
| Cc1nc[nH]c1-c1nc2cc(S(=O)(=O)Nc3ccccc3Cl)ccc2[nH]1 [Example 44, N-(2-chlorophenyl)-2-(4-methyl-1H-imidazol-5-yl)-1H-benzo[d]imidazole-5-sulfonamide] | 4.87 |
| CC1CCN(S(=O)(=O)c2ccc3[nH]c(-c4ccccn4)nc3c2)CC1 [Example 45, 5-((4-methylpiperidin-1-yl)sulfonyl)-2-(pyridin-2-yl)-1H-benzo[d]imidazole] | 5.13 |
| O=S(=O)(Nc1ccccc1Cl)c1ccc2[nH]c(C3CCCCO3)nc2c1 (centres unmarked) [Example 46, N-(2-chlorophenyl)-2-(tetrahydro-2H-pyran-2-yl)-1H-benzo[d]imidazole-5-sulfonamide] | 5.63 |
| O=S(=O)(Nc1ccc(F)cc1F)c1ccc2[nH]c(-c3nccs3)nc2c1 [Example 47, N-(2,4-difluorophenyl)-2-(thiazol-2-yl)-1H-benzo[d]imidazole-5-sulfonamide] | 6.15 |
| CN(c1ccccc1F)S(=O)(=O)c1ccc2[nH]c(-c3ccccn3)nc2c1 [Example 50, N-(2-fluorophenyl)-N-methyl-2-(pyridin-2-yl)-1H-benzo[d]imidazole-5-sulfonamide] | 5.95 |
| CN1CCCCC1c1nc2cc(S(=O)(=O)Nc3ccccc3Cl)ccc2[nH]1 (centres unmarked) [Example 53, N-(2-chlorophenyl)-2-(1-methylpiperidin-2-yl)-1H-benzo[d]imidazole-5-sulfonamide] | < 5.00 |

Stronger by pEC50, values ahead:

| pEC50 | Compound |
| --- | --- |
| 6.70 | O=S(=O)(Nc1ccccc1Cl)c1ccc2[nH]c(-c3ccc(Cl)o3)nc2c1 [Example 30, 2-(5-chlorofuran-2-yl)-N-(2-chlorophenyl)-1H-benzo[d]imidazole-5-sulfonamide] |
| 6.33 | O=S(=O)(Nc1ccccc1Cl)c1ccc2[nH]c(-c3ncc(F)cc3F)nc2c1 [Example 31, N-(2-chlorophenyl)-2-(3,5-difluoropyridin-2-yl)-1H-benzo[d]imidazole-5-sulfonamide] |
| 6.73 | O=S(=O)(Nc1ccccc1F)c1ccc2[nH]c(-c3ccccn3)nc2c1 [Example 33, N-(2-fluorophenyl)-2-(pyridin-2-yl)-1H-benzo[d]imidazole-5-sulfonamide] |
| 6.53 | O=S(=O)(Nc1ccc(F)cc1F)c1ccc2[nH]c(-c3ccccc3)nc2c1 [Example 36, N-(2,4-difluorophenyl)-2-phenyl-1H-benzo[d]imidazole-5-sulfonamide] |
| 6.43 | O=S(=O)(Nc1ccccc1F)c1ccc2[nH]c(-c3ccsc3)nc2c1 [Example 38, N-(2-fluorophenyl)-2-(thiophen-3-yl)-1H-benzo[d]imidazole-5-sulfonamide] |
| 6.65 | O=S(=O)(Nc1ccc(F)cc1F)c1ccc2[nH]c(-c3ccsc3)nc2c1 [Example 42, N-(2,4-difluorophenyl)-2-(thiophen-3-yl)-1H-benzo[d]imidazole-5-sulfonamide] |
| 6.50 | CCc1ccc(NS(=O)(=O)c2ccc3[nH]c(-c4ccsc4)nc3c2)cc1 [Example 48, N-(4-ethylphenyl)-2-(thiophen-3-yl)-1H-benzo[d]imidazole-5-sulfonamide] |
| 7.00 | O=S(=O)(Nc1ccc(F)cc1F)c1ccc2[nH]c(-c3ccccn3)nc2c1 [Example 51, N-(2,4-difluorophenyl)-2-(pyridin-2-yl)-1H-benzo[d]imidazole-5-sulfonamide] |
| 6.85 | O=S(=O)(Nc1ccc(F)cc1F)c1ccc2[nH]c(-c3cccc(F)n3)nc2c1 [Example 52, N-(2,4-difluorophenyl)-2-(6-fluoropyridin-2-yl)-1H-benzo[d]imidazole-5-sulfonamide] |
